Measured values from BindingDB's records for doi:10.1021/acs.jnatprod.0c01136 (Chinese Academy of Sciences, 2021).

Assay: Inhibition of spike glycoprotein S in SARS-CoV-2 pseudovirus infected in human 293T/ACE2 cells assessed as inhibition of viral infection pretreated the virus for 30 mins followed by viral infection measured after 48 hrs by luciferase reporter gene assay
Work on `COc1c(O)c2c(=O)cc(OC)c3c4c(OC)cc(=O)c5c(O)c(OC)c6c(c(c1C[C@](C)(O)[C@H]6C(C)=O)c23)c54` yielded an IC50 of 120 nM. Work on `COC1=C(CC(C)=O)C(=O)c2c(c(O)cc(OC)c2-c2c(OC)cc(O)c3c2C(=O)C(CC(C)=O)=C(OC)C3=O)C1=O` yielded an IC50 of 170 nM. `COc1c2c3c4c(c(OC)c(=O)c5c(O)cc(OC)c(c6c(OC)cc(O)c(c1=O)c63)c54)[C@@H](C(C)=O)[C@@](C)(O)C2` [Hypocrellin A] gave an IC50 of 38 nM.
